Results on 3 compounds are retold here after ChEMBL document CHEMBL1201862, “PubChem BioAssay data set” (2004).

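All cell lines were grown in 96-well plates and treated with compound for 48 hours. The concentration for 50% growth inhibition is given as GI50.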 Active and inactive are the calls of the source. Cut-off read from the data, not from the text of the source: active = GI50 up to about 1.1 µM and inactive = higher. Bounds are passed on as bounds.

Some test systems named below: LOX IMVI; SW-620; SF-268; CAKI-1; ACHN; UACC-62; SK-MEL-28; SR; MCF7; CCRF-CEM; A549; UO-31; SNB-78; SF-539; DU-145; MDA-MB-231; SK-MEL-2; K562; HOP-62; RPMI-8226.
Common to all, as to test: growth of human tumour cells (NCI), 48 h

As for `CC(C)OC(=O)Nc1c([N+](=O)[O-])cc(C(F)(F)F)cc1[N+](=O)[O-]`, the GI50 in the experiment with LOX IMVI is > 100 µM (inactive); with SW-620, > 100 µM (inactive); with SF-268 it was 39.4 µM (inactive); in the experiment on CAKI-1, > 100 µM (inactive); in the experiment with ACHN, > 100 µM (inactive); in the experiment with UACC-62 it was > 100 µM (inactive). In addition, the GI50 with SK-MEL-28 was > 100 µM (inactive); with SR, > 67.5 µM (inactive); with MCF7, > 100 µM (inactive); in the experiment with CCRF-CEM it was > 100 µM (inactive); in the experiment with A549 it was > 100 µM (inactive); with UO-31, > 90.2 µM (inactive). Further, the GI50 with SNB-78 is > 50 µM (inactive); in the experiment with SF-539, 23.9 µM (inactive); in the experiment with DU-145, > 100 µM (inactive); in the experiment with MDA-MB-231 it was 59.4 µM (inactive); with SK-MEL-2, > 73.1 µM (inactive); in the experiment with K562, > 46.5 µM (inactive). The GI50 was 93.3 µM (inactive) with HOP-62 and > 100 µM (inactive) in the experiment on RPMI-8226.
On to `C=C(CN(CC(=C)C(=O)c1ccccc1)C(C)(C)C)C(=O)c1ccccc1`, for which the GI50 in the experiment with LOX IMVI was 16.4 µM (inactive); with SW-620, 2.82 µM (inactive); in the experiment on SF-268, 12.2 µM (inactive); in the experiment on CAKI-1 it was 4.28 µM (inactive); with ACHN, 8.99 µM (inactive); in the experiment on UACC-62 it was 17.2 µM (inactive). In addition, the GI50 was 16.5 µM (inactive) in the experiment with SK-MEL-28; 2.1 µM (inactive) in the experiment on SR; 1.5 µM (inactive) in the experiment with CCRF-CEM; 28.4 µM (inactive) in the experiment with A549; 11.7 µM (inactive) in the experiment with UO-31; 25.5 µM (inactive) with SNB-78. Also, the GI50 in the experiment on SF-539 is 16.8 µM (inactive); in the experiment with DU-145 it was 19.6 µM (inactive); in the experiment with SK-MEL-2 it was 18.2 µM (inactive); in the experiment with K562, 3.01 µM (inactive); in the experiment with RPMI-8226 it was 4.38 µM (inactive).
As for `CCCCC(=O)OC[n+]1ccc2c(C)c3[nH]c4ccccc4c3c(C)c2c1`, the GI50 was 0.493 µM (active) in the experiment with LOX IMVI; 0.359 µM (active) with SW-620; 0.46 µM (active) in the experiment on SF-268; 1.25 µM (inactive) with CAKI-1; 0.187 µM (active) in the experiment with ACHN; 1.26 µM (inactive) with UACC-62. Also, the GI50 in the experiment on SK-MEL-28 is 1.32 µM (inactive); with SR, 0.0895 µM (active); in the experiment with MCF7, 0.18 µM (active); with CCRF-CEM, 0.0432 µM (active); with A549, 0.267 µM (active); with UO-31, 0.701 µM (active). Further, the GI50 was 0.796 µM (active) in the experiment on SNB-78; 0.526 µM (active) with SF-539; 1.04 µM (active) with DU-145; 0.174 µM (active) in the experiment with MDA-MB-231; 1.97 µM (inactive) with SK-MEL-2; 0.186 µM (active) in the experiment on K562. Besides, the GI50 in the experiment with HOP-62 was 0.537 µM (active); with RPMI-8226, 0.195 µM (active).
